# From patent publication US20110263664A1, “Inhibitors of PIM-1 Protein Kinases, Compositions and Methods for Treating Prostate Cancer” (MUSC FOUNDATION FOR RESEARCH DEVELOPMENT, priority 2007, published 2011)
# Columns and labels:
# Assay type in all cases: biochemical
# ABL = ABL (Homo sapiens, UniProt P00519); assay: Kinase selectivity, Table 5: ABL; details: read-out: selectivity data (inhibition), ABL
# AKT1 = AKT1 (Homo sapiens, UniProt P31749); assay: Kinase selectivity, Table 5: AKT1; details: read-out: selectivity data (inhibition), AKT1
# AKT2 = AKT2 (Homo sapiens, UniProt P31751); assay: Kinase selectivity, Table 5: AKT2; details: read-out: selectivity data (inhibition), AKT2
# AKT2, sequence (P31751 whole entry, species assumed): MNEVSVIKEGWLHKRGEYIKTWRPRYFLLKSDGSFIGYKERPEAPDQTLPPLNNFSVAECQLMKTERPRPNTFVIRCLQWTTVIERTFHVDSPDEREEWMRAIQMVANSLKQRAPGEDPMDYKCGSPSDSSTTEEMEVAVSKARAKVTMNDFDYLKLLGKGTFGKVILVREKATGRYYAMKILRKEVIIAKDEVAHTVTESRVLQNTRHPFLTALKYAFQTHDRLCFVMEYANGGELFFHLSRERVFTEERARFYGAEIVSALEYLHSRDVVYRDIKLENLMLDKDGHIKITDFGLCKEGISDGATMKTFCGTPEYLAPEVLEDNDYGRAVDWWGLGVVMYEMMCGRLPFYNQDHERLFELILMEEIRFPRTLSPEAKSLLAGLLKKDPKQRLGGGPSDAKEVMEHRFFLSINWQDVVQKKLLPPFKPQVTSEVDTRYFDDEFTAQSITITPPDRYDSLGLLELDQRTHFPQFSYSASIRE
# AKT3 = AKT3 (Homo sapiens, UniProt Q9Y243); assay: Kinase selectivity, Table 5: AKT3; details: read-out: selectivity data (inhibition), AKT3
# BMX = BMX (Homo sapiens, UniProt P51813); assay: Kinase selectivity, Table 5: BMX; details: read-out: selectivity data (inhibition), BMX
# BMX, sequence (P51813 whole entry, species assumed): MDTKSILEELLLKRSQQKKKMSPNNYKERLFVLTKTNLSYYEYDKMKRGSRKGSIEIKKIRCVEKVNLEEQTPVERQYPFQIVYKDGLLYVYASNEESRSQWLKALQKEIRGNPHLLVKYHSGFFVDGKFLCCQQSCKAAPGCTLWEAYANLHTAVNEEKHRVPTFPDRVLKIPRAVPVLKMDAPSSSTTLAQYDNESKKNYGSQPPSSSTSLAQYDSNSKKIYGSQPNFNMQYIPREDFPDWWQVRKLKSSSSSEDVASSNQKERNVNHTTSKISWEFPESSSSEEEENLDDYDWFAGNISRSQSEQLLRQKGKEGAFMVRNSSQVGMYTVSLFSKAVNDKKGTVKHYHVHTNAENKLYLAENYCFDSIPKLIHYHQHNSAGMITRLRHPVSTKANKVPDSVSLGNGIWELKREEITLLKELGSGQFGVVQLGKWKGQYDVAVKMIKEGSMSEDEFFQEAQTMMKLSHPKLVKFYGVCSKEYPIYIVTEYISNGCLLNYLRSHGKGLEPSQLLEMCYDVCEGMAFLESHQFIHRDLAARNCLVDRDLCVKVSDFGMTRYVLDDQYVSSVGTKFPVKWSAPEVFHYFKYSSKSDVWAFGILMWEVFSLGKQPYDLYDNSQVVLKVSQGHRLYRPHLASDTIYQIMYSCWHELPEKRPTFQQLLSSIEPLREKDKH
# BTK = BTK (Homo sapiens, UniProt Q06187); assay: Kinase selectivity, Table 5: BTK; details: read-out: selectivity data (inhibition), BTK
# CHK2 = CHK2 (Homo sapiens, UniProt O96017); assay: Kinase selectivity, Table 5: CHK2; details: read-out: selectivity data (inhibition), CHK2
# CHK2, sequence (O96017 whole entry, species assumed): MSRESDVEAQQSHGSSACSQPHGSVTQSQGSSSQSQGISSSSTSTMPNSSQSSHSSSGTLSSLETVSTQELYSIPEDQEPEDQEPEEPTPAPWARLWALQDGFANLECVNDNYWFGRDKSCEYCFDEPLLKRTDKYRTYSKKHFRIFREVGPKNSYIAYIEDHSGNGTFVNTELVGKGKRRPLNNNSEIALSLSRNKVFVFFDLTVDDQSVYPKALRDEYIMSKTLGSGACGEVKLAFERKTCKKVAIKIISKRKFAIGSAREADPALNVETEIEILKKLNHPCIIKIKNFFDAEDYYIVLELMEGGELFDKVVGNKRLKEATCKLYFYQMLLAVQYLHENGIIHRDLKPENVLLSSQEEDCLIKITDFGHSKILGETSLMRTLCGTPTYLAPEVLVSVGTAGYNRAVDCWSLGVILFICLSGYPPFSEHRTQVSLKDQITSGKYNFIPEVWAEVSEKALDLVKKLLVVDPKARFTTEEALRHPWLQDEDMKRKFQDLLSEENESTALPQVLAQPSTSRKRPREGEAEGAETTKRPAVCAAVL
# CK1δ = CK1δ (Homo sapiens, UniProt P48730); assay: Kinase selectivity, Table 5: CK1δ; details: read-out: selectivity data (inhibition), CK1δ
# c-TAK1 = c-TAK1 (Homo sapiens, UniProt P27448); assay: Kinase selectivity, Table 5: c-TAK1; details: read-out: selectivity data (inhibition), c-TAK1
# c-TAK1, sequence (P27448 whole entry, species assumed): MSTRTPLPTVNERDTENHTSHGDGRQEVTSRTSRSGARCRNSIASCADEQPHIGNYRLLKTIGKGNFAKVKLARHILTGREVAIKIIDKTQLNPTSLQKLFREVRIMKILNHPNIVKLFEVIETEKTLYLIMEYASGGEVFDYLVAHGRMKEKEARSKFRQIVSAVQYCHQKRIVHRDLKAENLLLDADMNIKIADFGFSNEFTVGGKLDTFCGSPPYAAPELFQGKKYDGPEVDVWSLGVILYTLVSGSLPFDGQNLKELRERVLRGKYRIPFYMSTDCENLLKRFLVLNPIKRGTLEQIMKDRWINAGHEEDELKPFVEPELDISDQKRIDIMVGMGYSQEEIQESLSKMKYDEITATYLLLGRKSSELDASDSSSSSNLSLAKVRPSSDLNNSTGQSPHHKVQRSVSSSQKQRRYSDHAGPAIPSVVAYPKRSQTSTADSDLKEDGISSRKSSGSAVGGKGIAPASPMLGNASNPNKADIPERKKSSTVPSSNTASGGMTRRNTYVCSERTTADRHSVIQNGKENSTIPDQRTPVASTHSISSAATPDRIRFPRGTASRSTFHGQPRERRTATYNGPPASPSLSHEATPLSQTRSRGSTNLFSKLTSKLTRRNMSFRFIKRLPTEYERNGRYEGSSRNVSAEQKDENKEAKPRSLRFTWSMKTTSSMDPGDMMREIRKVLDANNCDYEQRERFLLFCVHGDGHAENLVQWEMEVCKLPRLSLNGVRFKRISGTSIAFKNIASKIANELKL
# EGFR = EGFR (Homo sapiens, UniProt P00533); assay: Kinase selectivity, Table 5: EGFR; details: read-out: selectivity data (inhibition), EGFR
# Erk1 = Erk1 (Homo sapiens, UniProt P27361); assay: Kinase selectivity, Table 5: Erk1; details: read-out: selectivity data (inhibition), Erk1
# Erk1, sequence (P27361 whole entry, species assumed): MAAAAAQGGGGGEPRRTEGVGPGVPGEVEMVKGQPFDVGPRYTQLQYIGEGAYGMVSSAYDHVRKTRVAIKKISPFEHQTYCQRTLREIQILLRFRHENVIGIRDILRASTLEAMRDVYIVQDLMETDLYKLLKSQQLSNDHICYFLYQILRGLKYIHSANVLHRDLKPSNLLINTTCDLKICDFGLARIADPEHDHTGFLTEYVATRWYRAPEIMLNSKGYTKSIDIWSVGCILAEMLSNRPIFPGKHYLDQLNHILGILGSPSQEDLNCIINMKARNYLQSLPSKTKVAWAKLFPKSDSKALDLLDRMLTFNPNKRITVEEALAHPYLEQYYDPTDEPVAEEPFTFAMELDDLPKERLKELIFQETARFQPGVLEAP
# FYN = FYN (Homo sapiens, UniProt P06241); assay: Kinase selectivity, Table 5: FYN; details: read-out: selectivity data (inhibition), FYN
# FYN, sequence (P06241 whole entry, species assumed): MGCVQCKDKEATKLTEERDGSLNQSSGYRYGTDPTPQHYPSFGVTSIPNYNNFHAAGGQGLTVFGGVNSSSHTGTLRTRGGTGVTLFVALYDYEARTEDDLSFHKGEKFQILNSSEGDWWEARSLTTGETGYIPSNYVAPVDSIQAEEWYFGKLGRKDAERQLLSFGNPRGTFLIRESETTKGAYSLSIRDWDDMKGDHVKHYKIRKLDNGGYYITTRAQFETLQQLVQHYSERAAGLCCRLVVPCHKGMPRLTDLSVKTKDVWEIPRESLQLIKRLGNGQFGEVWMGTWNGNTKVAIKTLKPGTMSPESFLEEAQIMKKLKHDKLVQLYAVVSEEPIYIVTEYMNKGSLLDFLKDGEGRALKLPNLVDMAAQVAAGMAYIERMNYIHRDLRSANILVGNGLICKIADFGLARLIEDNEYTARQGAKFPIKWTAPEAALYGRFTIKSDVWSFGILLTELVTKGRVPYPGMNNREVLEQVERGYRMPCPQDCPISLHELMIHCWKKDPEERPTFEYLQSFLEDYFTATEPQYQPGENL
# Ikkβ = Ikkβ (Homo sapiens, UniProt O14920); assay: Kinase selectivity, Table 5: Ikkβ; details: read-out: selectivity data (inhibition), Ikkβ
# LYN = LYN (Homo sapiens, UniProt P07948); assay: Kinase selectivity, Table 5: LYN; details: read-out: selectivity data (inhibition), LYN
# MET = MET (Homo sapiens, UniProt P08581); assay: Kinase selectivity, Table 5: MET; details: read-out: selectivity data (inhibition), MET
# p70S6K = p70S6K (Homo sapiens, UniProt P23443); assay: Kinase selectivity, Table 5: p70S6K; details: read-out: selectivity data (inhibition), p70S6K
# PAK2 = PAK2 (Homo sapiens, UniProt Q13177); assay: Kinase selectivity, Table 5: PAK2; details: read-out: selectivity data (inhibition), PAK2
# PAK2, sequence (Q13177 whole entry, species assumed): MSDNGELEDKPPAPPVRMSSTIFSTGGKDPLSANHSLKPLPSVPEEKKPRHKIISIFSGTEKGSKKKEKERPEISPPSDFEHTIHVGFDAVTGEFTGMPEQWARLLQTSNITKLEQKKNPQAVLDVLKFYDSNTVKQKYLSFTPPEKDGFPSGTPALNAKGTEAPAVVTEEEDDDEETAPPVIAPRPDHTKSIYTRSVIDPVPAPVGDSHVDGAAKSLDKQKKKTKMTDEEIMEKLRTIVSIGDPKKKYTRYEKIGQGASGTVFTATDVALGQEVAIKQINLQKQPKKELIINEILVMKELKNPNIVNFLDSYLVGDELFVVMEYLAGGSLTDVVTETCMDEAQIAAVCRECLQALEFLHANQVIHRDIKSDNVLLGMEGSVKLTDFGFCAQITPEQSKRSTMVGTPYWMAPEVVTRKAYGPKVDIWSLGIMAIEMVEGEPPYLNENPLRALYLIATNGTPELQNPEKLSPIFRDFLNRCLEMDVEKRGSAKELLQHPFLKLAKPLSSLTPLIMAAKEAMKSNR
# PDGFRα = PDGFRα (Homo sapiens, UniProt P16234); assay: Kinase selectivity, Table 5: PDGFRα; details: read-out: selectivity data (inhibition), PDGFRα
# PDK1 = PDK1 (Homo sapiens, UniProt O15530); assay: Kinase selectivity, Table 5: PDK1; details: read-out: selectivity data (inhibition), PDK1
# PIM2 = PIM2 (Homo sapiens, UniProt Q9P1W9); assay: Kinase selectivity, Table 5: PIM2; details: read-out: selectivity data (inhibition), PIM2
# PKGα = PKGα (Homo sapiens, UniProt Q13976); assay: Kinase selectivity, Table 5: PKGα; details: read-out: selectivity data (inhibition), PKGα
# PLK1 = PLK1 (Homo sapiens, UniProt P53350); assay: Kinase selectivity, Table 5: PLK1; details: read-out: selectivity data (inhibition), PLK1
# PLK1, sequence (P53350 whole entry, species assumed): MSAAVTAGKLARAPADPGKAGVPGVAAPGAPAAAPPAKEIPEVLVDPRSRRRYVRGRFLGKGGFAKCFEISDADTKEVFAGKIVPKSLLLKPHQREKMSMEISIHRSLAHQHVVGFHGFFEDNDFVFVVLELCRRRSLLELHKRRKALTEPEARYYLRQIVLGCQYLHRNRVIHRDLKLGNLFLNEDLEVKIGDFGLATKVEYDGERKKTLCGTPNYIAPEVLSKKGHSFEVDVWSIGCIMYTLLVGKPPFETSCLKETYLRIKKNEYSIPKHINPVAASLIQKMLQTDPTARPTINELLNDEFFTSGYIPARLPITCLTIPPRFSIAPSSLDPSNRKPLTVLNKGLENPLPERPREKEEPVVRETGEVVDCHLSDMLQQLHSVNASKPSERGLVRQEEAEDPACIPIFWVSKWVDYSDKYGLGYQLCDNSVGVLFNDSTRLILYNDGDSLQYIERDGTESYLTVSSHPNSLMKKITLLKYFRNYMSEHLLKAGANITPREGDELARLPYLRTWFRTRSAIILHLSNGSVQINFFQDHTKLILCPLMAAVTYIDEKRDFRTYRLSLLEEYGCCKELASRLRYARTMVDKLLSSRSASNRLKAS
# PRAK = PRAK (Homo sapiens, UniProt Q8IW41); assay: Kinase selectivity, Table 5: PRAK; details: read-out: selectivity data (inhibition), PRAK
# PRAK, sequence (Q8IW41 whole entry, species assumed): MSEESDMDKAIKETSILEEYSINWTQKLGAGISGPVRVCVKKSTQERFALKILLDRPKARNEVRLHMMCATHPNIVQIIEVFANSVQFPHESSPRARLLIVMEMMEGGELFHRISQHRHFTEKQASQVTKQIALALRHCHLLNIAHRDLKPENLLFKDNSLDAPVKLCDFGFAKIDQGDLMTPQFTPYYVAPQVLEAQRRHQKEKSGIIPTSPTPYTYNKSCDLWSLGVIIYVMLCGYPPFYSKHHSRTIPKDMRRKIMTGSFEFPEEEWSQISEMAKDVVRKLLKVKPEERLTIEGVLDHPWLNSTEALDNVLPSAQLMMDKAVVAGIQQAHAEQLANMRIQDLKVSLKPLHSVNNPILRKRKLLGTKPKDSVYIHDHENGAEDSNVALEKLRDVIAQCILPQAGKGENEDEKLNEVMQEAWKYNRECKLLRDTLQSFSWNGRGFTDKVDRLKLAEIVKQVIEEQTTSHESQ
smiles,measurement,setting,value
"CC(C)c1ccc(C=C2SC(=O)NC2=O)cc1 [5-(4-iso-propylbenzylidene)thiazolidine-2,4-dione]",inhibition at 5 µM,ABL,6%
same,inhibition at 5 µM,AKT1,6%
same,inhibition at 5 µM,AKT2,-1%
same,inhibition at 5 µM,AKT3,3%
same,inhibition at 5 µM,BMX,10%
same,inhibition at 5 µM,BTK,7%
same,inhibition at 5 µM,CHK2,4%
same,inhibition at 5 µM,CK1δ,7%
same,inhibition at 5 µM,c-TAK1,0%
same,inhibition at 5 µM,EGFR,-3%
same,inhibition at 5 µM,Erk1,1%
same,inhibition at 5 µM,FYN,0%
same,inhibition at 5 µM,Ikkβ,10%
same,inhibition at 5 µM,LYN,8%
same,inhibition at 5 µM,MET,-6%
same,inhibition at 5 µM,p70S6K,8%
same,inhibition at 5 µM,PAK2,-1%
same,inhibition at 5 µM,PDGFRα,6%
same,inhibition at 5 µM,PDK1,1%
same,inhibition at 5 µM,PIM2,62%
same,inhibition at 5 µM,PKGα,0%
same,inhibition at 5 µM,PLK1,9%
same,inhibition at 5 µM,PRAK,4%
